Measured values published in PMC9410094 (Marine Drugs, 2022).
Values after ≈ are worked out from the molar mass of the structure shown. Positions of bridges follow the written chain, without caps; N, C: chain ends. Residues, ends and D or L forms follow the SMILES beside them.

Legend:
[1] = RP-HPLC retention time as measure of hydrophobicity; type: physicochemical; conditions: chromatographic, semipreparative RP-HPLC, C18 column, linear gradient 5 to 80% (v/v) acetonitrile in water with 0.1% TFA within 50 minutes; used as measure of hydrophobicity
Procedure: Table S1. Characteristics of the recombinant AMPs.
1 Mean Kyte–Doolittle hydrophobicity index (GRAVY) was calculated using the Expasy ProtParam tool. The maximum and minimum values of this index are +4.5 and -4.5 for poly-Ile and poly-Arg sequences, respectively. 2 Retention times were measured using semipreparative reversed-phase high-performance liquid chromatography (RP - HPLC) on a C18 column with a linear gradient from 5 to 80% ( v/v) acetonitrile in water containing 0.1% trifluoroacetic […]
acid (TFA) within 50 minutes. […]

[2] = tested on: Gram-positive bacteria; type: cell-based; conditions: 24 h
Procedure: (§1) The antimicrobial activity of the peptides was determined via the method of two-fold serial dilutions in sterile 96-well flat-bottom polystyrene microplates (Eppendorf #0030730011) in Mueller–Hinton broth (MHB, Sigma, Kawasaki, Kanagawa, Japan) supplemented with 0.9% NaCl. Bacterial cultures were grown in MHB at 37 °C until the culture reached an optical density OD600 of 1.0 and diluted with the broth so that to reach a final cell concentration of 10^6 CFU/mL. Then 50 μL of the test culture were added to 50 μL of aqueous solutions of the peptides, previously diluted in 0.1% sterilized bovine serum albumin (BSA) to reduce non-specific binding of the peptides to the surface of the plates. Next, the plate was incubated for 24 h at 37 °C and 950 rpm on the plate thermoshaker (Biosan). The values of the minimum inhibitory concentrations (MIC) were determined as the minimum concentration of the peptide, at which there is no culture growth. The results were expressed as the median values of three independent experiments performed in triplicate.

[3] = tested on: Gram-negative bacteria; test: Geometric mean of MICs, Gram-negative panel; type: cell-based; conditions: geometric mean (GM) of MICs against the 14 Gram-negative strains of Figure 2
Procedure: as §1

Row | Compound | RP-HPLC Retention Time [1] [min] | Minimum inhibitory concentration (MIC): Gram-positive Geometric mean [2] [µM] | Minimum inhibitory concentration (MIC): Gram-negative Geometric mean [3] [µM]
1 | CC(C)C[C@@H]1NC(=O)[C@H](Cc2ccc(O)cc2)NC(=O)[C@@H]2CSSC[C@H](NC(=O)[C@H](C)NC(=O)[C@H](CCCNC(=N)N)NC(=O)[C@H](C(C)C)NC(=O)CNC(=O)[C@H](CC(N)=O)NC(=O)[C@H](CCCNC(=N)N)NC1=O)C(=O)N[C@@H](Cc1ccc(O)cc1)C(=O)N[C@@H](CCCNC(=N)N)C(=O)N[C@@H](CCCNC(=N)N)C(=O)N[C@H](C(=O)N[C@@H](CC(N)=O)C(=O)O)CSSC[C@H](NC(=O)[C@H](Cc1ccc(O)cc1)NC(=O)CN)C(=O)N[C@@H](Cc1ccccc1)C(=O)N[C@@H]([C@@H](C)O)C(=O)N[C@@H](C)C(=O)N2 [Ap7] (H-GYCFTACYLRNGVRACYRRCN-OH; disulfide 3-20, 7-16) | 25.61 | 8 (≈ 19.9 µg/mL) | 
2 | CC[C@H](C)[C@@H]1NC(=O)[C@H](CCCNC(=N)N)NC(=O)[C@H](C)NC(=O)CNC(=O)[C@H](CC(N)=O)NC(=O)[C@H](CCCNC(=N)N)NC(=O)[C@H](CC(C)C)NC(=O)[C@H](Cc2ccc(O)cc2)NC(=O)[C@@H]2CSSC[C@H](NC1=O)C(=O)N[C@@H](Cc1ccc(O)cc1)C(=O)N[C@@H](CCCNC(=N)N)C(=O)N[C@@H](CCCNC(=N)N)C(=O)N[C@H](C(=O)N[C@@H](CC(N)=O)C(=O)O)CSSC[C@H](NC(=O)[C@H](Cc1ccc(O)cc1)NC(=O)CN)C(=O)N[C@@H](Cc1ccccc1)C(=O)N[C@@H]([C@@H](C)O)C(=O)N[C@@H](C)C(=O)N2 [Ap5] (H-GYCFTACYLRNGARICYRRCN-OH; disulfide 3-20, 7-16) | 25.53 | 5.04 (≈ 12.6 µg/mL) | 
3 | CC(C)C[C@@H]1NC(=O)[C@H](Cc2ccc(O)cc2)NC(=O)[C@@H]2CSSC[C@H](NC(=O)[C@H](CCCNC(=N)N)NC(=O)[C@H](CCCNC(=N)N)NC(=O)[C@H](C(C)C)NC(=O)CNC(=O)[C@H](CC(N)=O)NC(=O)[C@H](CCCNC(=N)N)NC1=O)C(=O)N[C@@H](Cc1ccc(O)cc1)C(=O)N[C@@H](CCCNC(=N)N)C(=O)N[C@@H](CCCNC(=N)N)C(=O)N[C@H](C(=O)N[C@@H](CC(N)=O)C(=O)O)CSSC[C@H](NC(=O)[C@H](Cc1ccc(O)cc1)NC(=O)CN)C(=O)N[C@@H](Cc1ccccc1)C(=O)N[C@@H]([C@@H](C)O)C(=O)N[C@@H](C)C(=O)N2 [Ap8] (H-GYCFTACYLRNGVRRCYRRCN-OH; disulfide 3-20, 7-16) | 24.34 | 16 (≈ 41.1 µg/mL) | 
4 | CC[C@H](C)[C@@H]1NC(=O)[C@H](CCCNC(=N)N)NC(=O)[C@H](C(C)C)NC(=O)CNC(=O)[C@H](CC(N)=O)NC(=O)[C@H](CCCNC(=N)N)NC(=O)[C@H](CC(C)C)NC(=O)[C@H](CCCNC(=N)N)NC(=O)[C@@H]2CSSC[C@H](NC1=O)C(=O)N[C@@H](Cc1ccc(O)cc1)C(=O)N[C@@H](CCCNC(=N)N)C(=O)N[C@@H](CCCNC(=N)N)C(=O)N[C@H](C(=O)N[C@@H](CC(N)=O)C(=O)O)CSSC[C@H](NC(=O)[C@H](Cc1ccc(O)cc1)NC(=O)CN)C(=O)N[C@@H](Cc1ccccc1)C(=O)N[C@@H]([C@@H](C)O)C(=O)N[C@@H](C)C(=O)N2 [Ap2] (H-GYCFTACRLRNGVRICYRRCN-OH; disulfide 3-20, 7-16) | 24.29 | 12.7 (≈ 32 µg/mL) | 
5 | CC[C@H](C)[C@@H]1NC(=O)[C@H](CCCNC(=N)N)NC(=O)[C@H](C(C)C)NC(=O)CNC(=O)[C@H](CC(N)=O)NC(=O)[C@H](CCCNC(=N)N)NC(=O)[C@H](CC(C)C)NC(=O)[C@H](C)NC(=O)[C@@H]2CSSC[C@H](NC1=O)C(=O)N[C@@H](Cc1ccc(O)cc1)C(=O)N[C@@H](CCCNC(=N)N)C(=O)N[C@@H](CCCNC(=N)N)C(=O)N[C@H](C(=O)N[C@@H](CC(N)=O)C(=O)O)CSSC[C@H](NC(=O)[C@H](Cc1ccc(O)cc1)NC(=O)CN)C(=O)N[C@@H](Cc1ccccc1)C(=O)N[C@@H]([C@@H](C)O)C(=O)N[C@@H](C)C(=O)N2 [Ap1] (H-GYCFTACALRNGVRICYRRCN-OH; disulfide 3-20, 7-16) | 26.05 | 10.08 (≈ 24.6 µg/mL) | 
6 | CC[C@H](C)[C@@H]1NC(=O)[C@H](CCCNC(=N)N)NC(=O)[C@H](C)NC(=O)CNC(=O)[C@H](CC(N)=O)NC(=O)[C@H](CCCNC(=N)N)NC(=O)[C@H](CCCNC(=N)N)NC(=O)[C@H](Cc2ccc(O)cc2)NC(=O)[C@@H]2CSSC[C@H](NC1=O)C(=O)N[C@@H](Cc1ccc(O)cc1)C(=O)N[C@@H](CCCNC(=N)N)C(=O)N[C@@H](CCCNC(=N)N)C(=O)N[C@H](C(=O)N[C@@H](CC(N)=O)C(=O)O)CSSC[C@H](NC(=O)[C@H](Cc1ccc(O)cc1)NC(=O)CN)C(=O)N[C@@H](Cc1ccccc1)C(=O)N[C@@H]([C@@H](C)O)C(=O)N[C@@H](C)C(=O)N2 [Ap10] (H-GYCFTACYRRNGARICYRRCN-OH; disulfide 3-20, 7-16) | 24.41 | 2.52 (≈ 6.41 µg/mL) | 0.31 (≈ 0.788 µg/mL)
7 | CC[C@H](C)[C@@H]1NC(=O)[C@H](CCCNC(=N)N)NC(=O)[C@H](CCCNC(=N)N)NC(=O)CNC(=O)[C@H](CC(N)=O)NC(=O)[C@H](CCCNC(=N)N)NC(=O)[C@H](CC(C)C)NC(=O)[C@H](Cc2ccc(O)cc2)NC(=O)[C@@H]2CSSC[C@H](NC1=O)C(=O)N[C@@H](Cc1ccc(O)cc1)C(=O)N[C@@H](CCCNC(=N)N)C(=O)N[C@@H](CCCNC(=N)N)C(=O)N[C@H](C(=O)N[C@@H](CC(N)=O)C(=O)O)CSSC[C@H](NC(=O)[C@H](Cc1ccc(O)cc1)NC(=O)CN)C(=O)N[C@@H](Cc1ccccc1)C(=O)N[C@@H]([C@@H](C)O)C(=O)N[C@@H](C)C(=O)N2 [Ap6] (H-GYCFTACYLRNGRRICYRRCN-OH; disulfide 3-20, 7-16) | 24.69 | 6.35 (≈ 16.4 µg/mL) | 
